Experimental data published in patent publication US4256753A, “4-(2-Pyridylamino)phenylacetic acid derivatives” (Dainippon Pharmaceutical Co., Ltd., priority 1978, dated 1981).
Like-named read-outs stand apart in the source and are kept apart here.

Assays:
[1] = test system: Carrageenin-induced hind paw edema; assay: Carrageenin-induced hind paw edema in rats (CAR method); format: in vivo; conditions: Rattus norvegicus, po, read-out: Anti-inflammatory ED50, CAR
Method: (a) Carrageenin-induced hind paw edema in rats (CAR method)
The test was carried out according to the method described in Proc. Soc. Exp. Biol. Med., 111, 544 (1962).

[2] = test system: Acetic acid-induced vascular permeability; assay: Acetic acid-induced vascular permeability in mice (CAP method); format: in vivo; conditions: Mus musculus, po, read-out: Anti-inflammatory ED50, CAP
Method: (b) Acetic acid-induced vascular permeability in mice (CAP method)
The test was carried out according to the method described in Brit. J. Pharm. Chemother., 22, 246 (1964).

[3] = test system: Phenylquinone-induced writhing; assay: Phenylquinone-induced writhing in mice (PQW method); format: in vivo; conditions: Mus musculus, po, read-out: Analgesic ED50, PQW
Method: (a) Phenylquinone-induced writhing in mice (PQW method)
The test was carried out according to the method described in Proc. Soc. Exp. Biol. Med., 95, 729 (1957).

[4] = test system: Acetic acid-induced writhing; assay: Acetic acid-induced writhing in rats (ACWR method); format: in vivo; conditions: Rattus norvegicus, po, read-out: Analgesic ED50, ACWR
Method: (b) Acetic acid-induced writhing in rats (ACWR method)
The test was carried out according to the method described in Arzneim. Forsch., 25, 1505 (1975).

[5] = test system: adjuvant-induced arthritis; assay: Prophylactic effect on adjuvant-induced arthritis in rats; format: in vivo, female rats of JCL:SD strain; conditions: for Arthritic incidence: 80 mg/kg/day p.o., days 0-20, vehicle control 100
[6] = Gastrointestinal ulcerogenicity in fasted rats; conditions: rat, in vivo, po
Method: The test was carried out using fasted rats according to the method described in Arzneim.

[7] = Anti-allergic activity; conditions: result in words, no test described
[8] = in vivo; conditions: mouse, po
[9] = mice, acetic acid-induced vascular permeability

Structure (SMILES)	ED50 [1]	ED50 [2, 9]	ED50 [3]	ED50 [4]	ED50 [2]	Arthritic incidence [5]	TD50 [6]	anti-allergic activity [7]	Arthritic index mean ± S.E., 22nd day ([5]; rat, in vivo)	Arthritic index mean ± S.E., 28th day ([5]; rat, in vivo)	selectivity ratio ([6]; rats, p.o., UD50 divided by ED50 of CAR method, read-out: Safety index, ratio of UD50/ED50 (CAR method))	LD50 at 168 h [8]
CC(C(=O)O)c1ccc(Nc2ccccn2)c(Cl)c1 (centres unmarked) [B, 2-[3-Chloro-4-(2'-pyridylamino)phenyl]propionic acid]	13.1 mg/kg	3.18 mg/kg	8.62 mg/kg	1.8 mg/kg	–	–	–	–	–	–	–	–
CC(C)Cc1ccc(C(C)C(=O)O)cc1 (centres unmarked) [Compound 1, 2-(4-isobutylphenyl)propionic acid, reference compound]	–	–	50 mg/kg	9.43 mg/kg	7.11 mg/kg	85.7%	125 mg/kg	does not show such an activity	–	–	–	–
CC(C(=O)O)c1ccc(N(C)c2ccccn2)cc1 (centres unmarked) [Compound 2, 2-[4-[N-Methyl-N-(2'-pyridyl)amino]phenyl]propionic acid]	40 mg/kg	> 20 mg/kg	> 100 mg/kg	20 mg/kg	–	–	–	–	–	–	–	–
CC(C(=O)O)c1ccc(Oc2ccccn2)cc1 (centres unmarked) [Compound 3, 2-[4-(2'-Pyridyloxy)phenyl]propionic acid]	20 mg/kg	6.74 mg/kg	80 mg/kg	5.51 mg/kg	–	–	–	–	–	–	–	–
CC(C(=O)O)c1ccc(Nc2ccccn2)cc1 (centres unmarked) [Compound A, 2-[4-(2'-Pyridylamino)phenyl]propionic acid]	10 mg/kg	0.88 mg/kg	7.33 mg/kg	1.36 mg/kg	–	0%	> 640 mg/kg	shows an anti-allergic activity	1.3 ± 0.8	1.3 ± 0.6	> 64	1910 mg/kg
